Results taken from patent publication US7626031B2, “Substituted 3-(diarylmethylene)indolin-2-ones and methods of their use” (Symphony Evolution, Inc., priority 2002, dated 2009).

How the values were obtained:
Flt-1 = Flt-1 (Homo sapiens, UniProt P17948); test: Kinase assay, Flt-1 (33P-ATP incorporation or luciferase-coupled ATP consumption); type: biochemical; details: read-out: Flt1 IC50
Protocol: (§1) Kinase assays were performed by measurement of incorporation of γ-^33P ATP into immobilized myelin basic protein (MBP). […] Plates were washed 3× with 100 μl TBS. […] Compound dilutions were performed in DMSO and added to assay wells to a final DMSO concentration of 1%. Each data point was measured in duplicate, and at least two duplicate assays were performed for each individual compound determination. Enzyme was added to final concentrations of 10 nM or 20 nM, for example. A mixture of unlabeled ATP and γ-^33P ATP was added to start the reaction (2×10^6 cpm of γ-^33P ATP per well (3000 Ci/mmole) and either 10 μM or 30 μM unlabeled ATP, typically. The reactions were carried out for 1 hour at room temperature with shaking. Plates were washed 7× with TBS, followed by the addition of 50 μl/well scintillation fluid (Wallac). Plates were read using a Wallac Trilux counter. This is only one format of such assays, various other formats are possible, as known to one of ordinary skill in the art.
(§2) Tyrosine kinase activity is determined by 1) measurement of kinase-dependent ATP consumption by in the presence of a generic substrate such as, polyglutamic acid, tyrosine, 4:1 (pEY), by luciferase/luciferin-mediated chemiluminescence or; 2) incorporation of radioactive phosphate derived from ^33P-ATP into a generic substrate which has been adsorbed onto the well surface of polystyrene microtiter plates. Phosphorylated substrate products are quantified by scintillation spectrometry.
(§3) Kinase activity and compound inhibition are investigated using one or more assay formats. The ATP concentrations for each assay are selected to be close to the Michaelis-Menten constant (KM) for each individual kinase. Dose-response experiments are performed at 10 different inhibitor concentrations in a 384-well plate format. […] Exemplary kinase assays are described below. KDR Assay

EphA2 = EphA2 (Homo sapiens, UniProt P29317); test: Kinase assay, EphA2 (33P-ATP incorporation or luciferase-coupled ATP consumption); type: biochemical
Protocol: as §1, §2, §3

IRK = IRK (Homo sapiens, UniProt P06213); test: Kinase assay, IRK; type: biochemical
Protocol: as §3

EGFR = EGFR (Homo sapiens, UniProt P00533); test: Kinase assay, EGFR (33P-ATP incorporation or luciferase-coupled ATP consumption); type: biochemical
Protocol: as §1, §2, §3

[1] = target: T1, KDR (baculovirus expressed human KDR kinase domain D807-V1356) (Homo sapiens, UniProt P35968); test: biochemical
T1 construct: human KDR kinase domain D807-V1356; host or cells: baculovirus expression system
Protocol: as §3
KDR biochemical activity was assessed using a Luciferase-Coupled Chemiluminescent Kinase assay (LCCA) format. Kinase activity was measured as the percent ATP remaining following the kinase reaction. Remaining ATP was detected by luciferase-luciferin-coupled chemiluminescence. […] The mixture is incubated at ambient temperature for 4 hours after which 20 uL luciferase-luciferin mix is added and the chemiluminescent signal read using a Wallac Victor^2 reader.

PDGFR alpha = PDGFR alpha (Homo sapiens, UniProt P16234); test: Kinase assay, PDGFR alpha (33P-ATP incorporation or luciferase-coupled ATP consumption); type: biochemical; details: read-out: PDGF-R-A IC50
Protocol: as §1, §2, §3

Fyn = Fyn (Homo sapiens, UniProt P06241); test: Kinase assay, Fyn; type: biochemical
Protocol: as §3

FGFR1 = FGFR1 (Homo sapiens, UniProt P11362); test: Kinase assay, FGFR1 (33P-ATP incorporation or luciferase-coupled ATP consumption); type: biochemical
Protocol: as §1, §2, §3

T1 sequence (P35968 807-1356): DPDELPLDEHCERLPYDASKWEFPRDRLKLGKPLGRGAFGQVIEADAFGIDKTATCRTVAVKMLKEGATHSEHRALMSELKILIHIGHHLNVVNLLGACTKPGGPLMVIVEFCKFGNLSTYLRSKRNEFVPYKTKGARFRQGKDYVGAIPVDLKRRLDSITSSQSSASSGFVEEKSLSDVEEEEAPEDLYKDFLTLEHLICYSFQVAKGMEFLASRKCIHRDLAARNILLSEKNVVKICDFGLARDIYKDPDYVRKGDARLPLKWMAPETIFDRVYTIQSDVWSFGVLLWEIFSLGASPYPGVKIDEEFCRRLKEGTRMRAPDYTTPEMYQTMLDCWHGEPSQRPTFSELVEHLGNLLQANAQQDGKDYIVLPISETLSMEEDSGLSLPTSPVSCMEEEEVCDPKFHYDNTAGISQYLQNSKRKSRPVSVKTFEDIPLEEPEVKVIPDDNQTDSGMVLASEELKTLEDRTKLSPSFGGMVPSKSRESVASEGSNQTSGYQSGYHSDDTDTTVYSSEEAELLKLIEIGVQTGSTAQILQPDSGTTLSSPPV
FGFR1, sequence (P11362 22-822, species assumed): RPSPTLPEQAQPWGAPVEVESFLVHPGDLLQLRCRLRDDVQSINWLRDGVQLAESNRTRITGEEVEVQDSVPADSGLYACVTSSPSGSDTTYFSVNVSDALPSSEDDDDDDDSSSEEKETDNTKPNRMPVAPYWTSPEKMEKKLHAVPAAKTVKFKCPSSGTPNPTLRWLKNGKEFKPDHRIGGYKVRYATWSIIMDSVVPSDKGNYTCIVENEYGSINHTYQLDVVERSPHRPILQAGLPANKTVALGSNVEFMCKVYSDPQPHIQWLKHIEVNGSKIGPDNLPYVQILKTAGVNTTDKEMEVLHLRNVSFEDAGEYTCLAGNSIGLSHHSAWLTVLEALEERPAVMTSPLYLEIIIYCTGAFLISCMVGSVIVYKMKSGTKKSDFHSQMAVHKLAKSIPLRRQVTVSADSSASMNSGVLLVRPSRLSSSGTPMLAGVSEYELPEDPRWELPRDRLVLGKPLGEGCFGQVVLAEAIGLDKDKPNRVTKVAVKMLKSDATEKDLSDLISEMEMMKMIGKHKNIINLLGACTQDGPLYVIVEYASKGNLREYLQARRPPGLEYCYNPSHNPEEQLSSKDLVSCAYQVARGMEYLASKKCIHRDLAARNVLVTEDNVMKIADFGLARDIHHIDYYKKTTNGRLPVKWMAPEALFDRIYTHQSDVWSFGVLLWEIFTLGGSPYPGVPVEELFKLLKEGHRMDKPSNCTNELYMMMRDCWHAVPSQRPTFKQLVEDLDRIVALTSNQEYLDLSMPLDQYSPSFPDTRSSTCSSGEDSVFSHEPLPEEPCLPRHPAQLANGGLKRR
EphA2, sequence (P29317 24-976, species assumed): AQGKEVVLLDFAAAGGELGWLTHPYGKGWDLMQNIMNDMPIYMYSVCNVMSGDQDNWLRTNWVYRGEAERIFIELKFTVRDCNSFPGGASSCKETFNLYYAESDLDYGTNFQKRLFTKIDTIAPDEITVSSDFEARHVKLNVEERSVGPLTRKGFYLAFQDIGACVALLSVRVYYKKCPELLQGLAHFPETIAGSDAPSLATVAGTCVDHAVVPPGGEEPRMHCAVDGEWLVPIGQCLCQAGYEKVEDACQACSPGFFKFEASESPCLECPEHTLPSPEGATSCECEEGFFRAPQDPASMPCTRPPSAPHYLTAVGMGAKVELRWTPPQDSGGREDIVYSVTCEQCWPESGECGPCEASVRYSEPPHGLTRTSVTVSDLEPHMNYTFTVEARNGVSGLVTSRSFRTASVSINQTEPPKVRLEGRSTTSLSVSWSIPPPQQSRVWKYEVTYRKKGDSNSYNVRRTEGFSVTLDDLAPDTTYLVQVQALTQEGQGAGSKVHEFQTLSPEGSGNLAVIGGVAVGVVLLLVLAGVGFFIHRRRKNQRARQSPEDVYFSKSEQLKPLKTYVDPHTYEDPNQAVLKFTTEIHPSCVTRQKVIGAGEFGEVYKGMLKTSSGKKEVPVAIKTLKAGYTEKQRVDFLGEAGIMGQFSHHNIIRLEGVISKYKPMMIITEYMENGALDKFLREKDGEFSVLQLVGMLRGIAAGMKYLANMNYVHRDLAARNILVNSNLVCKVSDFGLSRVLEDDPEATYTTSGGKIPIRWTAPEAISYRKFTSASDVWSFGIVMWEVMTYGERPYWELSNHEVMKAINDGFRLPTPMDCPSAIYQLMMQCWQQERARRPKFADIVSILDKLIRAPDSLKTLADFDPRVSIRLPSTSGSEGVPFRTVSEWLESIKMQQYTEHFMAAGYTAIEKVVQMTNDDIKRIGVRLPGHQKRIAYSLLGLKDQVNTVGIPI
PDGFR alpha, sequence (P16234 24-1089): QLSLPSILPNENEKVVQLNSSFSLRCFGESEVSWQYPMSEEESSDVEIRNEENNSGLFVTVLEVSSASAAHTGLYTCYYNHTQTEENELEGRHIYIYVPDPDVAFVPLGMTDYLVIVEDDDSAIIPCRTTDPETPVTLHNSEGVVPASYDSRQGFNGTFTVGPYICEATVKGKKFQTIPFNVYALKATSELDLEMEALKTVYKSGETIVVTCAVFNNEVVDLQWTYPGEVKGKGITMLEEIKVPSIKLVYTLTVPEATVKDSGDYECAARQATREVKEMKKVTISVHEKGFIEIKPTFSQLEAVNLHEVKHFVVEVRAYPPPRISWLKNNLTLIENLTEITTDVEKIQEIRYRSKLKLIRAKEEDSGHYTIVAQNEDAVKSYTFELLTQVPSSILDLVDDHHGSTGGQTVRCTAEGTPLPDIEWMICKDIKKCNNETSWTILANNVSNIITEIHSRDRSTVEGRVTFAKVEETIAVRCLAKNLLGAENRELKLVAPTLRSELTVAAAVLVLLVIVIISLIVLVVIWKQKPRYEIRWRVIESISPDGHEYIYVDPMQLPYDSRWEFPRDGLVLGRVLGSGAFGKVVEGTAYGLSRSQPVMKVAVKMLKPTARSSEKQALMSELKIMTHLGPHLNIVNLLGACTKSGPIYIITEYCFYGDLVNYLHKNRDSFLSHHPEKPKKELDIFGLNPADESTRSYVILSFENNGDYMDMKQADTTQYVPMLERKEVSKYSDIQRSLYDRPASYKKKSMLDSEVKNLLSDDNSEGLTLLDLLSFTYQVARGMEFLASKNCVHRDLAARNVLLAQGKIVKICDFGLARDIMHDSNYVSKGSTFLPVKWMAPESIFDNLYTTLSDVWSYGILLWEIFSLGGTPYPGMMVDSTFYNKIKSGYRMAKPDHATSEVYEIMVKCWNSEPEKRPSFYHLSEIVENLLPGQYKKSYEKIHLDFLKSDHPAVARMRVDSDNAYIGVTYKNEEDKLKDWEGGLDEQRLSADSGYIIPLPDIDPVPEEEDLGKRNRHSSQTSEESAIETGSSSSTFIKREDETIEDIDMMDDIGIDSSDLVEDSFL
Fyn, sequence (P06241 whole entry, species assumed): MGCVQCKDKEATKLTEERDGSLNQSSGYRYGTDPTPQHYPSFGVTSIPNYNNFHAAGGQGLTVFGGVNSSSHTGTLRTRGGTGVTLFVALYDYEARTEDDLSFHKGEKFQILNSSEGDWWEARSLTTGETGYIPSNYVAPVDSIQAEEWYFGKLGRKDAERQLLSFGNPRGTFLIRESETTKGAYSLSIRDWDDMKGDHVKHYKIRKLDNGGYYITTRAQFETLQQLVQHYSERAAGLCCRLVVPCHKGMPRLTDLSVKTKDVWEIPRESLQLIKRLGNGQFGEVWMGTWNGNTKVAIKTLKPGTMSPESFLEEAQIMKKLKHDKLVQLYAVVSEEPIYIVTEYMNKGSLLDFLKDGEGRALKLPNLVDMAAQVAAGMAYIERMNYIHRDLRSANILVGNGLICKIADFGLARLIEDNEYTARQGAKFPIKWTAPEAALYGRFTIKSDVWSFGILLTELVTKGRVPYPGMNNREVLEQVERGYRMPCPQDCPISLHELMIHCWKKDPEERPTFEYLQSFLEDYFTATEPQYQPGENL
EGFR, sequence (P00533 25-1210, species assumed): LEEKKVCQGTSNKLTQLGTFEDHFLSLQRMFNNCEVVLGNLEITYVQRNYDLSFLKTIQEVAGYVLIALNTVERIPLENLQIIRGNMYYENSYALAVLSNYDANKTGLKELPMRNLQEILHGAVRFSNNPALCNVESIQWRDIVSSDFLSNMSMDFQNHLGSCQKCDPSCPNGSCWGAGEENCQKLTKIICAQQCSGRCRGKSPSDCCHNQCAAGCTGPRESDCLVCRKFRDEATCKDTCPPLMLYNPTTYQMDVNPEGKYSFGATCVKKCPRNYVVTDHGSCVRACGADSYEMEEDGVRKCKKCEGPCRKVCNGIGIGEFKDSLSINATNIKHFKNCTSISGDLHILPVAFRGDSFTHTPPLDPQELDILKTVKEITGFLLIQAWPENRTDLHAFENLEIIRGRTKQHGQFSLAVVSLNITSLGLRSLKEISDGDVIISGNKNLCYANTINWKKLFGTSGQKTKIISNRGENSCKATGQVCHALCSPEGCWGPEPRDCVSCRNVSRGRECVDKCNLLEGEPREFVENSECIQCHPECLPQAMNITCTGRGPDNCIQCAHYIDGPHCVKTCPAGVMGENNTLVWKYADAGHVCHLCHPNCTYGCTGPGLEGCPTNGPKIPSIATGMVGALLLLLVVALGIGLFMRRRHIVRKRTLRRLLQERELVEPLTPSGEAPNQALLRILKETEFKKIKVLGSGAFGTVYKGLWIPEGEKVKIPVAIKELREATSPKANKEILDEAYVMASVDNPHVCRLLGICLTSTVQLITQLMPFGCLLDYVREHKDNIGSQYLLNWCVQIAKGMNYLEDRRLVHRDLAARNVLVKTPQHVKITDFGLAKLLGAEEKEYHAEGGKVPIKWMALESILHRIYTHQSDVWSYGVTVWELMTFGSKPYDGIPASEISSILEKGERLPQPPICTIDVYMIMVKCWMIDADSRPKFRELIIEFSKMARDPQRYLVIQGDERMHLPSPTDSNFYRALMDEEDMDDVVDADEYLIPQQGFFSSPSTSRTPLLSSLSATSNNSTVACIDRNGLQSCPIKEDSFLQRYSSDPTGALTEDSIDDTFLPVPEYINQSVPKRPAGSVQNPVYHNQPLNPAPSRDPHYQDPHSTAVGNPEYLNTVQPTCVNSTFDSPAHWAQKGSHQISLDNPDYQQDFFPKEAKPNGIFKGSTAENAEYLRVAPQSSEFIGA

Row | IC50 (Flt-1) | IC50 (EphA2) | IC50 (IRK) | IC50 (EGFR) | IC50 [1] | IC50 (PDGFR alpha) | IC50 (Fyn) | IC50 (FGFR1) | SMILES
1 | 50 to 500 nM | 500 to 5000 nM | > 5000 nM | 500 to 5000 nM | < 50 nM | 50 to 500 nM | 50 to 500 nM | – | COc1ccc2[nH]c(/C(=C3\C(=O)Nc4ccc(NC5CCN(Cc6ccccc6)C5)cc43)c3ccccc3)nc2c1 (stereo not drawn) [Entry 1, (3Z)-3-[[5-(methyloxy)-1H-benzimidazol-2-yl](phenyl)methylidene[-5-}[1-(phenylmethyl)pyrrolidin-3-yl]amino}-1,3-dihydro-2H-indol-2-one]
2 | 50 to 500 nM | > 5000 nM | 500 to 5000 nM | 500 to 5000 nM | < 50 nM | < 50 nM | < 50 nM | – | CCN1CCC(Nc2ccc3c(c2)/C(=C(\c2ccc(OC)cc2)c2nc4cc(OC)ccc4[nH]2)C(=O)N3)CC1 [Entry 5, (3Z)-5-[(1-ethylpiperidin-4-yl)amino]-3-{[5-(methyloxy)-1H-benzimidazol-2-yl][4-(methyloxy)phenyl]methylidene}-1,3-dihydro-2H-indol-2-one]
3 | – | 500 to 5000 nM | > 5000 nM | > 5000 nM | < 50 nM | < 50 nM | 50 to 500 nM | < 50 nM | COCCN1CCC(Nc2ccc3c(c2)/C(=C(\c2ccccc2)c2nc4cc(Cl)ccc4[nH]2)C(=O)N3)CC1 [Entry 72]
4 | – | 500 to 5000 nM | > 5000 nM | 50 to 500 nM | < 50 nM | < 50 nM | < 50 nM | < 50 nM | COCCN1CCC(Nc2ccc3c(c2)/C(=C(\c2cc(F)cc(F)c2)c2ncc[nH]2)C(=O)N3)CC1 [Entry 75, (3Z)-3-[(3,5-difluorophenyl)(1H-imidazol-2-yl)methylidene]-5-({1-[2-(methyloxy)ethyl]piperidin-4-yl}amino)-1,3-dihydro-2H-indol-2-one]
5 | – | 500 to 5000 nM | 500 to 5000 nM | 50 to 500 nM | < 50 nM | < 50 nM | < 50 nM | < 50 nM | COCCN1CCC(Nc2ccc3c(c2)/C(=C(\c2cc(F)cc(F)c2)c2nc(C)c[nH]2)C(=O)N3)CC1 [Entry 76]
6 | – | 50 to 500 nM | 500 to 5000 nM | 50 to 500 nM | < 50 nM | < 50 nM | < 50 nM | < 50 nM | COCCN1CCC(Nc2ccc3c(c2)/C(=C(\c2ccc(C)cc2)c2nc(C)c[nH]2)C(=O)N3)CC1 [Entry 77, (3Z)-3-[(4-methyl-1H-imidazol-2-yl)(4-methylphenyl)methylidene]-5-({1-[2-(methyloxy)ethyl]piperidin-4-yl}amino)-1,3-dihydro-2H-indol-2-one]
7 | – | 500 to 5000 nM | > 5000 nM | > 5000 nM | < 50 nM | < 50 nM | 50 to 500 nM | 50 to 500 nM | COCCN1CCC(Nc2ccc3c(c2)/C(=C(\c2ccc(F)cc2)c2ncc[nH]2)C(=O)N3)CC1 [Entry 78]
8 | – | 500 to 5000 nM | > 5000 nM | > 5000 nM | < 50 nM | < 50 nM | 50 to 500 nM | 50 to 500 nM | COCCN1CCC(Nc2ccc3c(c2)/C(=C(\c2ccc(F)c(F)c2)c2ncc[nH]2)C(=O)N3)CC1 [Entry 79]
9 | – | 500 to 5000 nM | > 5000 nM | > 5000 nM | < 50 nM | 50 to 500 nM | 50 to 500 nM | 50 to 500 nM | COCCN1CCC(Nc2ccc3c(c2)/C(=C(\c2ccc(F)c(Cl)c2)c2ncc[nH]2)C(=O)N3)CC1 [Entry 80]
10 | – | 50 to 500 nM | 500 to 5000 nM | > 5000 nM | < 50 nM | < 50 nM | < 50 nM | < 50 nM | O=C1Nc2ccc(NC3CCNCC3)cc2/C1=C(\c1cccc(F)c1)c1ncc[nH]1 [Entry 81, (3Z)-3-[(3-fluorophenyl)(1H-imidazol-2-yl)methylidene]-5-(piperidin-4-ylamino)-1,3-dihydro-2H-indol-2-one]
11 | – | 500 to 5000 nM | > 5000 nM | > 5000 nM | 50 to 500 nM | 50 to 500 nM | 50 to 500 nM | 50 to 500 nM | O=C1Nc2ccc(NC3CCN(CCN4CCCCC4)CC3)cc2/C1=C(\c1cccc(F)c1)c1ncc[nH]1 [Entry 82]
12 | – | 500 to 5000 nM | > 5000 nM | > 5000 nM | < 50 nM | < 50 nM | 50 to 500 nM | < 50 nM | O=C1Nc2ccc(NC3CCN(CCN4CCOCC4)CC3)cc2/C1=C(\c1cccc(F)c1)c1ncc[nH]1 [Entry 83]
13 | – | 500 to 5000 nM | > 5000 nM | > 5000 nM | 50 to 500 nM | 50 to 500 nM | 50 to 500 nM | 50 to 500 nM | CCN(CC)CCN1CCC(Nc2ccc3c(c2)/C(=C(\c2cccc(F)c2)c2ncc[nH]2)C(=O)N3)CC1 [Entry 84, (3Z)-5-({1-[2-(diethylamino)ethyl]piperidin-4-yl}amino)-3-[(3-fluorophenyl)(1H-imidazol-2-yl)methylidene]-1,3-dihydro-2H-indol-2-one]
14 | – | 500 to 5000 nM | > 5000 nM | > 5000 nM | < 50 nM | < 50 nM | 50 to 500 nM | 50 to 500 nM | O=C1Nc2ccc(NC3CCN(CCN4CCCC4)CC3)cc2/C1=C(\c1cccc(F)c1)c1ncc[nH]1 [Entry 85, (3Z)-3-[(3-fluorophenyl)(1H-imidazol-2-yl)methylidene]-5-{[1-(2-pyrrolidin-1-ylethyl)piperidin-4-yl]amino}-1,3-dihydro-2H-indol-2-one]
15 | – | 50 to 500 nM | 500 to 5000 nM | 50 to 500 nM | < 50 nM | < 50 nM | < 50 nM | < 50 nM | Cc1ccc(/C(=C2/C(=O)Nc3ccc(NC4CCN(C)CC4)cc32)c2ncc[nH]2)cc1 [Entry 86]
16 | – | > 5000 nM | > 5000 nM | > 5000 nM | 50 to 500 nM | 50 to 500 nM | > 5000 nM | 50 to 500 nM | COCCN1CCC(Nc2ccc3c(c2)/C(=C(\c2cccc(F)c2)c2ncn[nH]2)C(=O)N3)CC1 [Entry 87]
17 | – | > 5000 nM | > 5000 nM | > 5000 nM | 50 to 500 nM | < 50 nM | 50 to 500 nM | 50 to 500 nM | CCOC(=O)c1[nH]c(/C(=C2\C(=O)Nc3ccc(NC4CCN(CCOC)CC4)cc32)c2cccc(F)c2)nc1C [Entry 88, ethyl 2-{(Z)-(3-fluorophenyl)[5-({1-[2-(methyloxy)ethyl]piperidin-4-yl}amino)-2-oxo-1,2-dihydro-3H-indol-3-ylidene]methyl}-4-methyl-1H-imidazole-5-carboxylate]
18 | – | 500 to 5000 nM | 500 to 5000 nM | > 5000 nM | < 50 nM | < 50 nM | < 50 nM | < 50 nM | COCCN1CCC(Nc2ccc3c(c2)/C(=C(\c2ccccc2)c2ncc[nH]2)C(=O)N3)CC1 [Entry 89]
19 | – | 500 to 5000 nM | > 5000 nM | > 5000 nM | < 50 nM | < 50 nM | < 50 nM | 50 to 500 nM | COCCN1CCC(Nc2ccc3c(c2)/C(=C(\c2ccc(OC)cc2)c2ncc[nH]2)C(=O)N3)CC1 [Entry 90]
20 | – | 500 to 5000 nM | 500 to 5000 nM | > 5000 nM | < 50 nM | < 50 nM | < 50 nM | < 50 nM | COCCN1CCC(Nc2ccc3c(c2)/C(=C(\c2ccc(Cl)cc2)c2ncc[nH]2)C(=O)N3)CC1 [Entry 91, (3Z)-3-[(4-chlorophenyl)(1H-imidazol-2-yl)methylidene]-5-({1-[2-(methyloxy)ethyl]piperidin-4-yl}amino)-1,3-dihydro-2H-indol-2-one]
21 | – | 500 to 5000 nM | > 5000 nM | > 5000 nM | < 50 nM | < 50 nM | 50 to 500 nM | 50 to 500 nM | COCCN1CCC(Nc2ccc3c(c2)/C(=C(\c2ccc(C(F)(F)F)c(F)c2)c2ncc[nH]2)C(=O)N3)CC1 [Entry 92]
